In article PMC5406018, “TCR stimulation strength is inversely associated with establishment of functional brain-resident memory CD8 T cells during persistent viral infection” (PLoS Pathogens, 2017):
pEC50: −log10 of the molar value. No end group written: not given here.

Molecular target: T1, MHC-I D^b (Mus musculus, UniProt P01899)
T1 construct: endogenous in cells; host or cells: RMA/S cells
T1 sequence (P01899 25-362): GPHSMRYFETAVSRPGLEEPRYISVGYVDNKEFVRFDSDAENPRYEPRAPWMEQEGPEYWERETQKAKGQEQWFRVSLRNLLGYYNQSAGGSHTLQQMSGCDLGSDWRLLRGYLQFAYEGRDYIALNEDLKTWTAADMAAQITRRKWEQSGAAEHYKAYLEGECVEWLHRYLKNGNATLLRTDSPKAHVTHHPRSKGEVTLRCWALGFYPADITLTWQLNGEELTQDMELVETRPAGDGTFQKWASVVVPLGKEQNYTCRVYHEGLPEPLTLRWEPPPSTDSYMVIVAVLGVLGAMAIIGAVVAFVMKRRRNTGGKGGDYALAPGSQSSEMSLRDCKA
T1 sequence (P01887 21-119 partner): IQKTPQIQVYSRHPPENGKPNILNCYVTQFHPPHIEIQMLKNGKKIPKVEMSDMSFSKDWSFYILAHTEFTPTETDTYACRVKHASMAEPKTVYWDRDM
Test: RMA/S MHC-I stabilization assay
Conditions: RMA/S cells cultured overnight at 26°C, peptide 1 h at RT then 2 h at 37°C; anti-D^b gMFI, percent of maximum; unit inferred; read-out: MHC-I D^b EC50 (MHC-I binding and stabilization)
Description: Fig 1 Characterizing the T cell response to analogues of a subdominant CD8 T cell epitope. (A) RMA/S cells were cultured overnight at 26°C. Cells were incubated with the indicated dose of peptide for 1 h at RT followed by incubation at 37C for 2 h. […] (B) RMA/S cells were cultured overnight at […] in 100 μM of peptide. Cells were then resuspended in fresh media, incubated at 37C, and sampled hourly for 4 h. […] Nuclear Nur77 (C) and intracellular IFNγ expression (D) shown. […] All data plotted as percent of maximal expression ± SD. […]
For MHC-I stabilization assays, RMA/S cells were cultured overnight at 26°C, resuspended in RPMI containing 10% FBS (10% RPMI) and peptides of different concentrations, then incubated for 1 h at room temperature followed by 2 h at 37°C. […] Each hour for 4 h an aliquot of cells was stained for 30 mins at 4°C with phycoerythrin-conjugated anti-D^b (clone 28-14-8; eBioscience), acquired on a BD FACSCanto10 instrument, and the geometric mean fluorescence intensity (gMFI) determined using FlowJo Software (Tree Star). The percent maximum gMFI was calculated as (gMFI^peptide-gMFI^no peptide)/(gMFI^max- gMFI^no peptide) x 100. EC50 and T1/2 were calculated using Prism software (GraphPad, La Jolla CA).

Sequence	pEC50
MGVANLDNL [LT638]	6.59
QGINNLDNL [TagV]	6.76
